Measured values reported in patent US11826355B1, “Aspirin-mimetic antioxidants for treatment of age-related cataract” (priority 2022, dated 2023).
Where “and” joins values, the source holds several entries; their conditions need not be identical. Equal entries are not always repeated.

What was measured:
[1] = General clinical observations during 60-day eye drop administration; assay type: in vivo, rat; settings: eye drops 3 times/day, 60-day administration phase, all concentrations
Excerpt: (§1) At the age of 19 days after birth (D-1) of the suckling rats, 30 lens opacities were selected for a cloudy rating at Class 4 or 5; Wister suckling rats were randomly divided into 5 groups (G1-G5 groups, 6 in each group); and a cage of suckling rats as G6 was randomly selected after the animals opened their eyes (14-16 days of age).

[2] = system: Wistar rat cataract model induced by sodium selenite; test: Lens opacity score (slit lamp) in sodium selenite-induced cataract rat model; assay type: in vivo; parameters: lens opacity score, Mean / lens opacity score / lens opacity score, raw data per eye (OD/OS, rats 1-6): scale not given here
Protocol: A new batch of eye drops solutions was prepared every week. Placebo was a solution that contained the same excipients but without the drug compound. The eye drops solutions were prepared as follows:
3. An illustrative procedure: To a 250 mL volume flask were added 25 mg each of the excipients, sodium borate, boric acid, sodium chloride, and potassium chloride, an aspirin mimetic drug compound to be tested (e.g., DPL-004, 9.0 mg), and about 200 ml of sterilized water to form a mixture. The resultant mixture was shaken well to dissolve solids; and more sterilized water was added to bring the volume of solution to 250 mL, which was shaken well and then distributed into small portions. Each portion was labeled with a concentration of 3.6 mg/100 mL and the preparation date and was stored in a refrigerator for future use.
4. Eye drops solutions comprising DPL-004 at a concentration of 36 mg/100 mL and 12 mg/100 mL were prepared similarly according to the above procedure by using 90 mg and 30 mg of DPL-004, respectively, while maintaining the same amounts of excipients as shown above.
(§2) At the age of 11-12 days after birth, all suckling rats underwent a single intraperitoneal injection of sodium selenite (30 μmol/kg, i.e., 0.1 ml/10 g) for model-building. Sodium selenite solution was configured with normal saline at a concentration of 3 mM.
as §1
(§3) The subject suckling rats of groups G1 to G5 were treated at the age of 20 days after birth (D1), and the specific dosing information is shown in Table 1. Treatment in the G6 group was conducted after the animals opened their eyes (14-16 days old, D-6-D-4), and the specific dosing information is shown in Table 1.
At D-1, in the fourth week of treatment, the slit lamp was used at the end of administration to observe the turbidity of the lens and grade it, and the grading and scoring criteria are shown in the following Table 2.

[3] = Body weight of rats in the cataract model study; assay type: in vivo, rat; settings: 10 μl 3 times/day
Protocol: as §2, §1, §3

[4] = G3, 36 mg/0.1 L D1-D31 then 1.8 mg/0.1 L D32-D60, 10 μl 3 times/day, pH 6.5, day 60
[5] = G3, 36 mg/0.1 L, 10 μl 3 times/day, pH 6.5, day 28
[6] = G3, 36 mg/0.1 L, 10 μl 3 times/day, pH 6.5, day -1 (before administration)
[7] = G4, 12 mg/0.1 L, 10 μl 3 times/day, pH 6.5, day 28
[8] = G4, 12 mg/0.1 L, 10 μl 3 times/day, pH 6.5, day 60
[9] = G4, 12 mg/0.1 L, 10 μl 3 times/day, pH 6.5, day -1 (before administration)
[10] = G5, 3.6 mg/0.1 L, 10 μl 3 times/day, pH 6.5, day 28
[11] = G5, 3.6 mg/0.1 L, 10 μl 3 times/day, pH 6.5, day 60
[12] = G5, 3.6 mg/0.1 L, 10 μl 3 times/day, pH 6.5, day -1 (before administration)
[13] = G6 preventive dosing from D-6, 3.6 mg/0.1 L, 10 μl 3 times/day, pH 7.4, day 22
[14] = G6 preventive dosing from D-6, 3.6 mg/0.1 L, 10 μl 3 times/day, pH 7.4, day -1
[15] = G6 preventive dosing from D-6, 3.6 mg/0.1 L, 10 μl 3 times/day, pH 7.4, day -6
[16] = G6 preventive dosing from D-6, 3.6 mg/0.1 L, 10 μl 3 times/day, pH 7.4 to D31 then pH 6.0 D32-D60, day 60

O=C(Sc1ccccc1C(=O)S)c1cccnc1 [DPL-004, 2-[(pyridine-3-carbonyl)sulfanyl]benzene-1-carbothioic S-acid]
abnormal symptoms (activity status, body weight, skin hair, secretion morphology and color) [1]: no abnormal symptoms | lens opacity score, Mean [2, 4]: 2.75 | lens opacity score, raw data per eye (OD/OS, rats 1-6) [2, 4]: 2 and 3 and 4 | lens opacity score, Mean [2, 5]: 3.58 | lens opacity score, raw data per eye (OD/OS, rats 1-6) [2, 5]: 3 and 4 | lens opacity score, Mean [2, 6]: 4.00 | lens opacity score, raw data per eye (OD/OS, rats 1-6) [2, 6]: 4 | lens opacity score, Mean [2, 7]: 3.50 | lens opacity score, raw data per eye (OD/OS, rats 1-6) [2, 7]: 3 and 4 | lens opacity score, Mean [2, 8]: 2.58 | lens opacity score, raw data per eye (OD/OS, rats 1-6) [2, 8]: 2 and 3 and 4 | lens opacity score, Mean [2, 9]: 4.00 | lens opacity score, raw data per eye (OD/OS, rats 1-6) [2, 9]: 4 | Efficacy (reduction of lens opacity score vs placebo G2) ([2]; G4, 12 mg/0.1 L, pH 6.5, D28): 4.63% | Efficacy (reduction of lens opacity score vs placebo G2) ([2]; G4, 12 mg/0.1 L, pH 6.5, D60): 14.0% | lens opacity score, Mean [2, 10]: 3.42 | lens opacity score, raw data per eye (OD/OS, rats 1-6) [2, 10]: 4 and 3 | lens opacity score, Mean [2, 11]: 2.58 | lens opacity score, raw data per eye (OD/OS, rats 1-6) [2, 11]: 3 and 4 and 2 | lens opacity score, Mean [2, 12]: 4.00 | lens opacity score, raw data per eye (OD/OS, rats 1-6) [2, 12]: 4 | Efficacy (reduction of lens opacity score vs placebo G2) ([2]; G5, 3.6 mg/0.1 L, pH 6.5, D28): 6.81% | Efficacy (reduction of lens opacity score vs placebo G2) ([2]; G5, 3.6 mg/0.1 L, pH 6.5, D60): 14.0% | lens opacity score ([2]; G6 early intervention, 3.6 mg/0.1 L, pH 7.4, in the period of 28 days): 4.0 | lens opacity score, Mean [2, 13]: 4.00 | lens opacity score, raw data per eye (OD/OS, rats 1-6) [2, 13]: 4 | lens opacity score, Mean [2, 14]: 4.00 | lens opacity score, raw data per eye (OD/OS, rats 1-6) [2, 14]: 4 | lens opacity score, Mean [2, 15]: 4.00 | lens opacity score, raw data per eye (OD/OS, rats 1-6) [2, 15]: 4 | lens opacity score, Mean [2, 16]: 3.08 | lens opacity score, raw data per eye (OD/OS, rats 1-6) [2, 16]: 4 and 3 and 2 | effect on cataract in the rat model (in words) ([2]; eye drops, rat model): gradually reversing cataracts | Body Weight, Mean ([3]; G3, 36 mg/0.1 L (D32-D60 1.8 mg/0.1 L), pH 6.5, day 4): 58.22 g | Body Weight, Mean ([3]; G3, 36 mg/0.1 L (D32-D60 1.8 mg/0.1 L), pH 6.5, day 11): 97.48 g | Body Weight, Mean ([3]; G3, 36 mg/0.1 L (D32-D60 1.8 mg/0.1 L), pH 6.5, day 18): 130.98 g | Body Weight, Mean ([3]; G3, 36 mg/0.1 L (D32-D60 1.8 mg/0.1 L), pH 6.5, day 25): 161.68 g | Body Weight, Mean ([3]; G3, 36 mg/0.1 L (D32-D60 1.8 mg/0.1 L), pH 6.5, day 32): 184.12 g | Body Weight, Mean ([3]; G3, 36 mg/0.1 L (D32-D60 1.8 mg/0.1 L), pH 6.5, day 39): 210.05 g | Body Weight, Mean ([3]; G3, 36 mg/0.1 L (D32-D60 1.8 mg/0.1 L), pH 6.5, day 46): 232.55 g | Body Weight, Mean ([3]; G3, 36 mg/0.1 L (D32-D60 1.8 mg/0.1 L), pH 6.5, day 53): 256.08 g | Body Weight, Mean ([3]; G3, 36 mg/0.1 L (D32-D60 1.8 mg/0.1 L), pH 6.5, day 60): 273.13 g | Body Weight, Mean ([3]; G3, 36 mg/0.1 L (D32-D60 1.8 mg/0.1 L), pH 6.5, day -1 (before administration)): 45.68 g | Body Weight, Mean ([3]; G4, 12 mg/0.1 L, pH 6.5, day 4): 59.37 g | Body Weight, Mean ([3]; G4, 12 mg/0.1 L, pH 6.5, day 11): 98.03 g | Body Weight, Mean ([3]; G4, 12 mg/0.1 L, pH 6.5, day 18): 138.57 g | Body Weight, Mean ([3]; G4, 12 mg/0.1 L, pH 6.5, day 25): 166.05 g | Body Weight, Mean ([3]; G4, 12 mg/0.1 L, pH 6.5, day 32): 188.40 g | Body Weight, Mean ([3]; G4, 12 mg/0.1 L, pH 6.5, day 39): 209.05 g | Body Weight, Mean ([3]; G4, 12 mg/0.1 L, pH 6.5, day 46): 232.02 g | Body Weight, Mean ([3]; G4, 12 mg/0.1 L, pH 6.5, day 53): 240.18 g | Body Weight, Mean ([3]; G4, 12 mg/0.1 L, pH 6.5, day 60): 269.85 g | Body Weight, Mean ([3]; G4, 12 mg/0.1 L, pH 6.5, day -1 (before administration)): 46.10 g | Body Weight, Mean ([3]; G5, 3.6 mg/0.1 L, pH 6.5, day 4): 60.25 g | Body Weight, Mean ([3]; G5, 3.6 mg/0.1 L, pH 6.5, day 11): 101.48 g | Body Weight, Mean ([3]; G5, 3.6 mg/0.1 L, pH 6.5, day 18): 149.00 g | Body Weight, Mean ([3]; G5, 3.6 mg/0.1 L, pH 6.5, day 25): 188.37 g | Body Weight, Mean ([3]; G5, 3.6 mg/0.1 L, pH 6.5, day 32): 230.95 g | Body Weight, Mean ([3]; G5, 3.6 mg/0.1 L, pH 6.5, day 39): 257.97 g | Body Weight, Mean ([3]; G5, 3.6 mg/0.1 L, pH 6.5, day 46): 304.65 g | Body Weight, Mean ([3]; G5, 3.6 mg/0.1 L, pH 6.5, day 53): 323.03 g | Body Weight, Mean ([3]; G5, 3.6 mg/0.1 L, pH 6.5, day 60): 343.05 g | Body Weight, Mean ([3]; G5, 3.6 mg/0.1 L, pH 6.5, day -1 (before administration)): 45.40 g | Body Weight, Mean ([3]; G6 preventive dosing from D-6, 3.6 mg/0.1 L, pH 7.4 (D32-D60 pH 6.0), day 4): 62.15 g | Body Weight, Mean ([3]; G6 preventive dosing from D-6, 3.6 mg/0.1 L, pH 7.4 (D32-D60 pH 6.0), day 11): 106.70 g | Body Weight, Mean ([3]; G6 preventive dosing from D-6, 3.6 mg/0.1 L, pH 7.4 (D32-D60 pH 6.0), day 18): 140.92 g | Body Weight, Mean ([3]; G6 preventive dosing from D-6, 3.6 mg/0.1 L, pH 7.4 (D32-D60 pH 6.0), day 25): 171.78 g | Body Weight, Mean ([3]; G6 preventive dosing from D-6, 3.6 mg/0.1 L, pH 7.4 (D32-D60 pH 6.0), day 32): 211.43 g | Body Weight, Mean ([3]; G6 preventive dosing from D-6, 3.6 mg/0.1 L, pH 7.4 (D32-D60 pH 6.0), day 39): 251.03 g | Body Weight, Mean ([3]; G6 preventive dosing from D-6, 3.6 mg/0.1 L, pH 7.4 (D32-D60 pH 6.0), day 46): 283.27 g | Body Weight, Mean ([3]; G6 preventive dosing from D-6, 3.6 mg/0.1 L, pH 7.4 (D32-D60 pH 6.0), day 53): 303.65 g | Body Weight, Mean ([3]; G6 preventive dosing from D-6, 3.6 mg/0.1 L, pH 7.4 (D32-D60 pH 6.0), day 60): 330.03 g | Body Weight, Mean ([3]; G6 preventive dosing from D-6, 3.6 mg/0.1 L, pH 7.4 (D32-D60 pH 6.0), day -1): 45.27 g | Body Weight, Mean ([3]; G6 preventive dosing from D-6, 3.6 mg/0.1 L, pH 7.4 (D32-D60 pH 6.0), day -6): 35.83 g
